# Earlier results in patent US20240398886A1, “EFFECTIVE EYELID, FACE, HEAD AND BODY CLEANSER” (priority 2023, published 2024).
# Legend:
# [1] = mammals; refs (12, 13)
# [2] = humans and warm-blooded vertebrates; refs (12, 13)
smiles,measurement,setting,value
C/C=C(\C)C(=O)O[C@H]1C[C@@H](OC(C)=O)[C@@]2(C(=O)OC)CO[C@H]3[C@@H](O)[C@@](C)([C@]45O[C@@]4(C)[C@H]4C[C@@H]5O[C@@H]5OC=C[C@@]54O)[C@H]4[C@]1(CO[C@]4(O)C(=O)OC)[C@@H]32 [Azadirachtin],genotoxicity,[1],without genotoxicity
same,toxicity,[2],non-toxic
